Values after ≈ are worked out from the molar mass of the structure shown. One block for each molecule: values may come before it.
Key:
SRPK1 = target: T1, SRPK1 (Homo sapiens, UniProt Q96SB4); experiment: In vitro kinase assay (radioactive filter binding, 33P ATP); assay type: biochemical
T1 construct: purchased MRC Dundee Kinase Centre (external assay service)
Protocol: Kinase assays were carried out by the MRC Dundee Kinase Centre using a radioactive filter binding assay using ^33P ATP (Hastie, et al 2006. Nat Protoc. 2006; 1(2):968-71; Bain, et al 2007. Biochem J. 2007 Dec. 15; 408(3):297-315).

[1] = Porcine scleral permeability (modified Ussing chamber); assay type: in vitro ADME; details: for Papp at 24 h, 10 μg/mL: pig, pH 7.4, porcine excised eye tissue, 10 μg/mL compound on donor side
Protocol: Scleral permeability was measured using a modified Ussing chamber assembly in the initial eye drop formulation containing 1% hydroxypropyl methyl cellulose, 0.2% tyloxapol, 3.4% dextrose, 0.006% benzalkonium chloride, and 0.025% ethylenediaminetetraacetic acid with 1% DMSO in PBS (pH 7.4). Porcine excised eye tissues were mounted in the chambers such that the episcleral side faced the donor chamber and the retinal side faced the receiver chamber. The chambers were filled with equal volumes of eye drop formulation, with (donor side) or without (receiver side) 10 μg/mL compound. After 24 hours tissue was removed from the chamber and the receiver side (“vitreous”) sampled. Tissue was dissected into sclera, choroid/RPE, and retina and homogenised. A tracer (SPHINX7; WO 2015/159103) was added, and tissue extracted by acetonitrile extraction as described in Batson et al (2017). Compounds were then analysed by mass spectrometry as described in Batson et al (2017).
To determine whether compounds could get across the sclera of a larger animal, porcine sclera was clamped between two chambers and compounds were added to the sclera with eye drop formulation added to the bottom chamber and compounds added to the top chamber. After 24 hours, the fluid from the bottom chamber (vitreous) and the retinal tissue was isolated and compounds purified by methanol or acetonitrile extraction and HPLC.

VEGF165b and VEGF165 = details: cited from earlier work
[2] = Solubility in eye drop formulation; assay type: physicochemical; details: aqueous with cosolvent or surfactant or cyclodextrin; initial eye drop formulation (1% HPMC, 0.2% tyloxapol, 3.4% dextrose, 1% DMSO in PBS); read-out: Maximum limit of solubility
[3] = test system: choroidal neovascularisation; details: mouse models of choroidal neovascularisation, previously shown; cited from earlier work
[4] = 0.5 mg monthly, at one year; cited from earlier work

T1 sequence (Q96SB4 whole entry): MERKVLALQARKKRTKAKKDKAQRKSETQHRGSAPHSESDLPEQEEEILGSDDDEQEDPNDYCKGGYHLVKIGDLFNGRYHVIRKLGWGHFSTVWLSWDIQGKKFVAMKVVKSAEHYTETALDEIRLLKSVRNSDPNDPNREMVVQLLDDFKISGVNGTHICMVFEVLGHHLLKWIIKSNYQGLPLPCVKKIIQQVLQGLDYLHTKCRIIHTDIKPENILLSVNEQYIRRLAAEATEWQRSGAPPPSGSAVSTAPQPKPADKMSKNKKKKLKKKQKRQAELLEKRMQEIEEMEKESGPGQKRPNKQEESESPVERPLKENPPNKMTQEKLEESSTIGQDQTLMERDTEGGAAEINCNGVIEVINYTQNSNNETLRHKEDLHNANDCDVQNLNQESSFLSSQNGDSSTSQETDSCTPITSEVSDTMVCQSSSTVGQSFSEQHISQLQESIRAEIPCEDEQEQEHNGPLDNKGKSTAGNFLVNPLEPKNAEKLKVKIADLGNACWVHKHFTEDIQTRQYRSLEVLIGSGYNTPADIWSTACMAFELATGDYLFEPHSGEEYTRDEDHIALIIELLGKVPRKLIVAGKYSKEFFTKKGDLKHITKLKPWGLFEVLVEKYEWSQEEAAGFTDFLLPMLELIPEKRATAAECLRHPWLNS

melting point: 148 to 150 °C | IC50 (SRPK1): 35 nM | Papp at 24 h, 10 μg/mL [1]: 0.0675 ×10⁻⁶ cm/s
Molecule: Cn1ccc(CN2CCCN(c3ccc(Cl)cc3NC(=O)c3ccc(C4CCOCC4)o3)CC2)n1 [Compound 3, N-(5-chloro-2-(4-((1-methyl-1H-pyrazol-3-yl)methyl)-1,4-diazepan-1-yl)phenyl)-5-(tetrahydro-2H-pyran-4-yl)furan-2-carboxamide]

Permeability across porcine sclera (in words) ([1]; 24 hours, FIG. 1): considerably lower permeability
Molecule: O=C(Nc1cc(C(F)(F)F)ccc1N1CCN(Cc2cc[nH]n2)CC1)c1ccc(C2CCOCC2)o1 [Compound R, N-(2-(4-((1H-pyrazol-3-yl)methyl)piperazin-1-yl)-5-(trifluoromethyl)-phenyl)-5-(tetrahydro-2H-pyran-4-yl)furan-2-carboxamide, reference compound]

solubility [2]: 80 µg/mL (≈ 183 µM)
Molecule: Cc1ccc(Nc2nccc(N(C)c3ccc4c(C)n(C)nc4c3)n2)cc1S(N)(=O)=O [pazopanib]

More lines, now with the values behind:

Molecule: bevicizumab: an anti-VEGF antibody from which Lucentis was derived
Binding of VEGF165b relative to VEGF165 (VEGF165b and VEGF165): equal potency

Molecule: Cn1ccc(CN2CCCN(c3ccc(C(F)(F)F)cc3NC(=O)c3ccc(C4CCOCC4)o3)CC2)n1 [Compound 2, N-(2-(4-((1-methyl-1H-pyrazol-3-yl)methyl)-1,4-diazepan-1-yl)-5-(trifluoromethyl)phenyl)-5-(tetrahydro-2H-pyran-4-yl)furan-2-carboxamide]
IC50 (SRPK1): 10 nM | Papp at 24 h, 10 μg/mL [1]: 0.0442 ×10⁻⁶ cm/s

Molecule: O=C(Nc1cc(C(F)(F)F)ccc1N1CCN(Cc2ccccn2)CC1)c1ccc(-c2ccncc2)o1 [SPHINX31]
Eye drop concentration of maximum effect [3]: 2 µg/mL

B1: Lucentis: a novel humanized anti-VEGF antibody fragment (antibody, chains of the INN, looked up, V domains shown)
VH: EVQLVESGGGLVQPGGSLRLSCAASGYDFTHYGMNWVRQAPGKGLEWVGWINTYTGEPTYAADFKRRFTFSLDTSKSTAYLQMNSLRAEDTAVYYCAKYPYYYGTSHWYFDVWGQGTLVTVSS
VL: DIQLTQSPSSLSASVGDRVTITCSASQDISNYLNWYQQKPGKAPKVLIYFTSSLHSGVPSRFSGSGSGTDFTLTISSLQPEDFATYYCQQYSTVPWTFGQGTKVEIK
modifications: Fab
notes: a novel humanized anti-VEGF antibody fragment
Patients who maintained visual acuity (loss of <15 letters) [4]: approximately 95% | Patients with improved vision (gain of ≥15 letters) [4]: ≤ 40%

— patent US12024504B2, “1-methyl-1H-pyrazol-3-yl derivatives for use in the treatment of neovascular diseases” (EXONATE LIMITED, priority 2021, dated 2024)
